{
  "source": "paper PMC8248988",
  "about": "“A signal capture and proofreading mechanism for the KDEL-receptor explains selectivity and dynamic range in ER retrieval” (eLife, 2021)",
  "key": {"ERP44": {"test_system": "ERP44", "test": "ER chaperone secretion assay, ERP44", "format": "cell-based, human", "description": "Figure 1. ER retrieval signal abundance and affinity are not correlated. (a) Sequence logos for ER resident proteins with C-terminal KDEL retrieval signals and variants thereof calculated using frequency or protein abundance ([Itzhak et al., 2017]; [Itzhak et al., 2016]). (b) Combined cellular concentrations of ER resident proteins with canonical KDEL, RDEL, and HDEL retrieval sequences in HeLa cells and mouse brain. (c) Competition binding assays for [^3H]-TAEHDEL and unlabelled TAEKDEL, TAERDEL, and TAEHDEL to the KDEL receptor. IC50 values for the competing peptides were used to calculate the apparent KDwith the Cheng-Prusoff equation ([Cheng and Prusoff, 1973]). (d) Endogenous KDEL receptor redistribution was measured in COS-7 cells in the absence (-ligand) or presence of K/R/H/A/DDEL (mScarlet-xDEL^sec). TGN46 was used as a Golgi marker. Scale bar is 10 µm. (e) The mean difference for K/R/H/A/DDEL comparisons against the shared no ligand control are shown as Cummings estimation plots. The individual data points for the fraction of KDEL receptor fluorescence in the Golgi are plotted on the upper axes with sample sizes and p values. Figure 1—source data 1. Source data for the ligand-induced KDELR receptor retrieval assays in Figure 1e. Figure 1—figure supplement 1. Abundance of ER resident proteins and chaperones in human cells and mouse brain. (a) The mean concentration of ER resident chaperones with the indicated ER retrieval sequence variant is plotted in the bar graph ([Itzhak et al., 2017]; [Itzhak et al., 2016]). […] Endogenous ER chaperone secretion was measured by western blotting after challenge with different retrieval signals, and plotted as a bar graph showing mean ± SEM (n = 3). […] (a) Distribution of human KDELR1 and (b) KDELR2 was measured in COS-7 cells in the absence (-ligand) or presence of K/R/H/A/DDEL retrieval signals (K/R/H/A/DDEL^sec). […] The fraction of KDEL receptor localised to the Golgi was measured before (no ligand) and after challenge with different retrieval signals as indicated. […]"}, "[1]": {"test_system": "BIP and PDI, ERP72 and ERP44", "test": "ER chaperone secretion assay, all four chaperones", "format": "cell-based, human", "conditions": "HeLa S3 cells", "description": "Figure 1. ER retrieval signal abundance and affinity are not correlated. (a) Sequence logos for ER resident proteins with C-terminal KDEL retrieval signals and variants thereof calculated using frequency or protein abundance ([Itzhak et al., 2017]; [Itzhak et al., 2016]). (b) Combined cellular concentrations of ER resident proteins with canonical KDEL, RDEL, and HDEL retrieval sequences in HeLa cells and mouse brain. (c) Competition binding assays for [^3H]-TAEHDEL and unlabelled TAEKDEL, TAERDEL, and TAEHDEL to the KDEL receptor. IC50 values for the competing peptides were used to calculate the apparent KDwith the Cheng-Prusoff equation ([Cheng and Prusoff, 1973]). (d) Endogenous KDEL receptor redistribution was measured in COS-7 cells in the absence (-ligand) or presence of K/R/H/A/DDEL (mScarlet-xDEL^sec). TGN46 was used as a Golgi marker. Scale bar is 10 µm. […] The individual data points for the fraction of KDEL receptor fluorescence in the Golgi are plotted on the upper axes with sample sizes and p values. […] Endogenous ER chaperone secretion was measured by western blotting after challenge with different retrieval signals, and plotted as a bar graph showing mean ± SEM (n = 3). […] (a) Distribution of human KDELR1 and (b) KDELR2 was measured in COS-7 cells in the absence (-ligand) or presence of K/R/H/A/DDEL retrieval signals (K/R/H/A/DDEL^sec). […]"}},
  "data": [
    {"substance": "ADEL [pcDNA3.1 hGHss-mScarlet-H. sapiens BiP639-654K651A (ADEL^SEC), secreted mScarlet fusion with human BiP C-terminus, ADEL signal]", "values": [
      {"measurement": "ERP44 secretion after challenge with retrieval signal", "setting": "ERP44; mean, HeLa S3, 24 hr, Western blot densitometry", "value": 11.8},
      {"measurement": "ERP44 secretion after challenge with retrieval signal", "setting": "ERP44; replicate 1", "value": 8.7},
      {"measurement": "ERP44 secretion after challenge with retrieval signal", "setting": "ERP44; replicate 2", "value": 14.9},
      {"measurement": "effect on ER retention of BIP, PDI, ERP72 and ERP44 (in words)", "setting": "[1]", "value": "little effect on ER retention"}
    ]}
  ]
}
